{"source": "patent US20080119527A1", "about": "“Composition for combating the localized hyperpigmentation of dark skin” (L'OREAL, priority 2006, published 2008)", "assay_type_in_all_cases": "cell-based", "key": {"[1]": {"system": "Normal human melanocyte/keratinocyte cocultures (NHM/NHK)", "experiment": "Protein assay per well (toxicity estimate) in UV-irradiated NHM/NHK coculture", "experimental": "(§1) Normal human melanocyte/keratinocyte cocultures (NHM/NHK) undergo 1 irradiation with UV radiation, repeated daily for 4 days, in the presence or absence of the products to be evaluated. The melanin synthesis is quantified as previously by means of the incorporation of ^14C-thiouracil present in the culture medium. In parallel, a protein assay is performed in each well in order to normalize the melanin synthesis and to estimate the toxicity of the product.\n(§2) For each experimental condition, cell lysates are performed by rinsing the cells with a phosphate buffer (PBS). The proteins are precipitated using 5% trichloracetic acid (TCA) and washed in order to remove the free radioactivity. The proteins are incubated over a weekend at 37° C. using a proteinase K solution at 20 μl/ml in tris HCl-Triton-EDTA buffer.\n(§3) 5 μl of total extract are taken and transferred into a 96-well plate (Wallac). The proteins are assayed using the Protein Assay Reagent assay kit (Pierce). The amount of proteins per well (P) will be used to normalize the melanogenesis. The rest of the extract is filtered on a DEAE Filtermat filter (Wallac). After rinsing, the filter covered with “Meltilex” solid scintillant (Wallac) is transferred into a Costar counting plate. The radioactivity is counted using a Wallac counter and allows quantification of the melanogenesis (M) by measurement of the ^14C-thiouracil (ccpm) incorporated by the cells."}, "[2]": {"system": "Normal human melanocyte/keratinocyte cocultures (NHM/NHK)", "experiment": "Photoinduced melanogenesis (UV irradiation) in NHM/NHK coculture, anti-pigmentation protocol", "source_text": "Measurement of the photoinduced melanogenesis-modulating effect of the polymer SMA1000HNa® in the presence or absence of ascorbic acid on a coculture of normal human keratinocytes and melanocytes (anti-pigmentation effect).\nas §1\nMore specifically, the melanocytes and keratinocytes are inoculated, respectively, at 80 000 and 250 000 cells per well in 24-well plates in the keratinocyte differentiation medium. The plates are incubated for 3 days at 37° C. before treatment.\nTo avoid photo-oxidation of one of its components, the culture medium is replaced at the time of irradiation with a solution of the products in PBS. The products are placed in contact with the cells for 15 minutes before irradiation.\nThe UV irradiation is performed using a sun simulator. The delivered dose is 7 J/cm^2. Irradiation source: Oriel Xénon 1000W simulator+dichroic filter+WG 320/1.5 mm.\nThe following controls are prepared:\nNon-irradiated control (quantification of the constitutive melanogenesis)\nBlank irradiation control\n2 positive controls of photoinduced melanogenesis inhibition: (100 μM arbutin; 1 μM lucinol).\nAfter irradiation, the PBS is removed and the cells are incubated in a semi-defined culture medium to which are added the products and the ^14C-thiouracil (1 μCi/ml). This treatment is repeated daily for 4 days.\nas §2, §3\nNormalized melanogenesis (NM)=M/P\nPhoto-induced melanogenesis (PIM)=NM (irradiated sample)−NM (non-irradiated sample)\nAnti-pigmenting effect of the product (%)=[[PIM(irradiated+treated sample)−PIM(irradiated sample)]/PIM(irradiated sample)]×100"}, "[3]": {"system": "coculture of normal human keratinocytes and melanocytes", "experiment": "Melanogenesis modulation: 14C-thiouracil incorporation in keratinocyte/melanocyte coculture", "experimental": "Measurement of the melanogenesis-modulating effect of the copolymer of styrene/hydrolysed maleic anhydride (50/50) in sodium salt form, at 40% in water (SMA1000HNa® from the company Cray Valley), in the presence or absence of ascorbic acid, on a coculture of normal human keratinocytes and melanocytes.\nThe melanogenesis-modulating effect of the copolymer SMA1000HNa® was tested according to the method described in patent FR-A-2 734 825, and also in the article by R. Schmidt, P. Krien and M. Régnier, Anal. Biochem., 235(2), 113-18, 1996.\nBriefly, the method comprises the steps consisting in:\ncoculturing normal human keratinocytes/melanocytes in a medium containing the tested extract and also a labelled melanin precursor, in the present case C14-labelled thiouracil,\nlysing the cells containing the melanin with protein-degrading enzymes,\npassing the extract obtained through an anion-exchange filter with a pore diameter of less than or equal to 1 μm, and\nevaluating the amount of melanin bound by the filter by means of radioactive assay of the thiouracil.\n(§4) Specifically, 50 000 normal human keratinocytes and 17 000 normal human melanocytes are mixed together and inoculated per well in 96-well plates (Costar type) and cultured for three days in the differentiation medium. During the following three days, the culture medium is replaced daily with the defined test medium (containing the products to be evaluated, and also 3 μCi/ml of C14-labelled thiouracil).\nThe following controls are prepared: • control culture: test medium • positive melanogenesis-stimulating control: test medium+1 mM tyrosine; • 3 positive melanogenesis-inhibiting controls: test medium+, respectively, 500 μM of kojic acid; 100 μM of arbutin; […] of lucinol (2-butyl-1,3-benzenediol).\n(§5) After one night, the cells are rinsed in phosphate buffer (phosphate-buffered saline, PBS). The proteins are precipitated using 5% trichloracetic acid (TCA) and washed in order to remove the free radioactivity. The proteins are incubated overnight at 37° C. using a proteinase K solution at 20 μl/ml in tris-HCl-Triton EDTA buffer.\n(§6) 50 μl of total extract are taken and transferred into a 96-well plate (Wallac) and 150 μl of scintillation liquid (Optiphase “Supermix”) are added. The rest of the extract, i.e. 950 μl, is filtered through a DEAE Filtermat filter. After rinsing, the filter covered with the “Meltilex” solid scintillant is transferred into a counting plate. The radioactivity is counted using a Wallac counter. The results are expressed as a percentage of the control according to the formula: […]\n14CP is the mean of the disintegrations per minute (dpm) of 14C-thiouracil on 3 similar wells treated with a product (P);\n3HP is the mean of the dpm of the corresponding 3H-leucine;\n14CT is the mean of the dpm of 14 C-thiouracil on 3 similar control wells (T);\n3HT is the mean of the dpm of the corresponding 3H-leucine.\nThe ratio of the incorporation of thiouracil to the incorporation of leucine is calculated, to normalize the melanogenesis to the amount of proteins present in the well. This ratio reflects the melanogenesis modulation."}, "[4]": {"system": "coculture of normal human keratinocytes and melanocytes", "experiment": "Tritiated leucine incorporation (proliferation and early cytotoxicity indicator) in the coculture", "source_text": "as §4\nThe total radioactivity incorporated into the proteins is estimated by the incorporation of tritiated leucine, taken as the proliferation indicator and the early cytotoxicity indicator. On the day before the sample is taken, 1 μCi/ml of tritiated leucine is added to the test medium. It is considered that a product is cytotoxic when the content of tritiated leucine falls by at least 30%.\nas §5, §6"}}}
{"molecule": "O=C1O[C@H]([C@@H](O)CO)C(O)=C1O", "note": "[vitamin C, ascorbic acid]", "values": [{"measurement": "Proteins (%/non-irradiated control)", "setting": "[1]; vitamin C 0.3 mM, UV irradiated", "result": "−12", "unit": "%"}, {"measurement": "Proteins (%/non-irradiated control)", "setting": "[1]; vitamin C 1 mM, UV irradiated", "result": "−19", "unit": "%"}, {"measurement": "Proteins (%/non-irradiated control)", "setting": "[1]; vitamin C 2 mM, UV irradiated", "result": "−19", "unit": "%"}, {"measurement": "Proteins (%/non-irradiated control)", "setting": "[1]; vitamin C 3 mM, UV irradiated", "result": "−22", "unit": "%"}, {"measurement": "IC50", "setting": "[2]; Homo sapiens, vitamin C alone, read-out: IC50 (anti-pigmenting effect)", "result": "~470", "unit": "µM"}, {"measurement": "Anti-pigmenting effect of the product", "setting": "[2]; vitamin C 0.3 mM", "result": "−40", "unit": "%"}, {"measurement": "PIM (%/non-irradiated control)", "setting": "[2]; vitamin C 0.3 mM", "result": 134, "unit": "%"}, {"measurement": "Anti-pigmenting effect of the product", "setting": "[2]; vitamin C 1 mM", "result": "−65", "unit": "%"}, {"measurement": "PIM (%/non-irradiated control)", "setting": "[2]; vitamin C 1 mM", "result": 78, "unit": "%"}, {"measurement": "Anti-pigmenting effect of the product", "setting": "[2]; vitamin C 2 mM", "result": "−90", "unit": "%"}, {"measurement": "PIM (%/non-irradiated control)", "setting": "[2]; vitamin C 2 mM", "result": 23, "unit": "%"}, {"measurement": "Anti-pigmenting effect of the product", "setting": "[2]; vitamin C 3 mM", "result": "−100", "unit": "%"}, {"measurement": "PIM (%/non-irradiated control)", "setting": "[2]; vitamin C 3 mM", "result": 0, "unit": "%"}, {"measurement": "IC50", "setting": "[3]; Homo sapiens, vitamin C alone, read-out: IC50 (14C ThioU./3H Leu.)", "result": "~230", "unit": "µM"}, {"measurement": "14C ThioU. (%/Control)", "setting": "[3]; vitamin C 0.1 mM", "result": "−14", "unit": "%"}, {"measurement": "14C ThioU./3H Leu.", "setting": "[3]; vitamin C 0.1 mM", "result": "−14", "unit": "%"}, {"measurement": "14C ThioU. (%/Control)", "setting": "[3]; vitamin C 0.3 mM", "result": "−69", "unit": "%"}, {"measurement": "14C ThioU./3H Leu.", "setting": "[3]; vitamin C 0.3 mM", "result": "−62", "unit": "%"}, {"measurement": "14C ThioU. (%/Control)", "setting": "[3]; vitamin C 0.4 mM", "result": "−79", "unit": "%"}, {"measurement": "14C ThioU./3H Leu.", "setting": "[3]; vitamin C 0.4 mM", "result": "−72", "unit": "%"}, {"measurement": "14C ThioU. (%/Control)", "setting": "[3]; vitamin C 0.6 mM", "result": "−76", "unit": "%"}, {"measurement": "14C ThioU./3H Leu.", "setting": "[3]; vitamin C 0.6 mM", "result": "−68", "unit": "%"}, {"measurement": "3H Leu. (%/Control)", "setting": "[4]; vitamin C 0.1 mM", "result": 0, "unit": "%"}, {"measurement": "3H Leu. (%/Control)", "setting": "[4]; vitamin C 0.3 mM", "result": "−17", "unit": "%"}, {"measurement": "3H Leu. (%/Control)", "setting": "[4]; vitamin C 0.4 mM", "result": "−23", "unit": "%"}, {"measurement": "3H Leu. (%/Control)", "setting": "[4]; vitamin C 0.6 mM", "result": "−23", "unit": "%"}]}
{"molecule": "OC[C@H]1O[C@@H](Oc2ccc(O)cc2)[C@H](O)[C@@H](O)[C@@H]1O", "note": "[Arbutin, arbutin]", "values": [{"measurement": "Proteins (%/non-irradiated control)", "setting": "[1]; 100 μM + SSR", "result": "−15", "unit": "%"}, {"measurement": "Anti-pigmenting effect of the product", "setting": "[2]; 100 μM + SSR", "result": "−111", "unit": "%"}, {"measurement": "PIM (%/non-irradiated control)", "setting": "[2]; 100 μM + SSR", "result": "−24", "unit": "%"}, {"measurement": "14C ThioU. (%/Control)", "setting": "[3]; 100 μM", "result": "−49", "unit": "%"}, {"measurement": "14C ThioU./3H Leu.", "setting": "[3]; 100 μM", "result": "−44", "unit": "%"}, {"measurement": "3H Leu. (%/Control)", "setting": "[4]; 100 μM", "result": "−8", "unit": "%"}]}
{"molecule": "N[C@@H](Cc1ccc(O)cc1)C(=O)O", "note": "[Tyrosine, tyrosine]", "values": [{"measurement": "14C ThioU. (%/Control)", "setting": "[3]; 1 mM", "result": 96, "unit": "%"}, {"measurement": "14C ThioU./3H Leu.", "setting": "[3]; 1 mM", "result": 85, "unit": "%"}, {"measurement": "3H Leu. (%/Control)", "setting": "[4]; 1 mM", "result": "+6%"}]}
{"molecule": "O=c1cc(CO)occ1O", "note": "[Kojic acid, kojic acid]", "values": [{"measurement": "14C ThioU. (%/Control)", "setting": "[3]; 500 μM", "result": "−56", "unit": "%"}, {"measurement": "14C ThioU./3H Leu.", "setting": "[3]; 500 μM", "result": "−52", "unit": "%"}, {"measurement": "3H Leu. (%/Control)", "setting": "[4]; 500 μM", "result": "−8", "unit": "%"}]}
